{
  "source": "paper PMC5700983",
  "about": "(Nature Communications, 2017)",
  "key": {"Ec_PhnD": {"biological_target": "Ec_PhnD", "settings": "cited from earlier work"}, "Pm_PhnD": {"biological_target": "Pm_PhnD (Prochlorococcus marinus, UniProt A3PC74)", "sequence (A3PC74 25-297)": "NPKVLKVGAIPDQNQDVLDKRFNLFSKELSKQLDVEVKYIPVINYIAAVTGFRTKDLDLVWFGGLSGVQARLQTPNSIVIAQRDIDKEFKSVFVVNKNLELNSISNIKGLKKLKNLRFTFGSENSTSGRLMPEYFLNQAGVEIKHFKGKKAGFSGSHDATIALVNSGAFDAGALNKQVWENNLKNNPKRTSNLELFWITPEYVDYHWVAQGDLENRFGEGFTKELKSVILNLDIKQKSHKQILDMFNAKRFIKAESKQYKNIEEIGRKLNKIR", "assay": "biochemical", "type": "binding, Prochlorococcus marinus MIT9301"}, "Ps_PtxB": {"biological_target": "Ps_PtxB (Stutzerimonas stutzeri, UniProt O69052)", "sequence (O69052 24-287)": "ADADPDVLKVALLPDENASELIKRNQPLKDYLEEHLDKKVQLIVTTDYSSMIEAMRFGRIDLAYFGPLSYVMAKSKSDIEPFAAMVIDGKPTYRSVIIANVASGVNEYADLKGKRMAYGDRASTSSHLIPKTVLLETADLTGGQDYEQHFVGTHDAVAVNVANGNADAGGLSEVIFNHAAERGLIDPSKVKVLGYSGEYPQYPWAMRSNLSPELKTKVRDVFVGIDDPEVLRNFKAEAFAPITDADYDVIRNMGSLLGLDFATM", "assay": "biochemical", "type": "binding, Pseudomonas stutzeri WM88"}, "[1]": {"system": "Te_PtxB, Pm_PhnD and Ps_PtxB", "type": "binding"}, "Te_PtxB [2]": {"biological_target": "T1, Te_PtxB (Trichodesmium erythraeum, UniProt Q119I9)", "T1 sequence (Q119I9 28-298 limits assumed)": "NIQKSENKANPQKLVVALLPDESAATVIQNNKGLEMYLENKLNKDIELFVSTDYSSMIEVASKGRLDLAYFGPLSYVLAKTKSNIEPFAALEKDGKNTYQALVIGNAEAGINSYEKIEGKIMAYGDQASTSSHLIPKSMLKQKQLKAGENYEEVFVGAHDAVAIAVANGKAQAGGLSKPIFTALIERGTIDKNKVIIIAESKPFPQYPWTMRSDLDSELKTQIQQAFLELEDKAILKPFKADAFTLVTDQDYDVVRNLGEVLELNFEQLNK", "assay": "biochemical", "type": "binding, Trichodesmium erythraeum IMS101"}, "HtxB [3]": {"biological_target": "T2, HtxB (Stutzerimonas stutzeri, UniProt O69061)", "T2 sequence (O69061 34-298)": "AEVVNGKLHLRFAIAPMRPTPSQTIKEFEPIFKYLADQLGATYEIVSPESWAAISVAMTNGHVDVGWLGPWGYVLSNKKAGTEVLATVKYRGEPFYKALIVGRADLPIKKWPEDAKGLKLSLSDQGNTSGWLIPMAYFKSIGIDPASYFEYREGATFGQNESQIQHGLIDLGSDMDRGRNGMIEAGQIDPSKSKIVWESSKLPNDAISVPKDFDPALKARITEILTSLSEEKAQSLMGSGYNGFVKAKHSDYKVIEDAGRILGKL", "settings": "pH 7.4"}, "[4]": {"system": "E. coli strain devoid of its native phosphate acquisition systems", "settings": "cited from earlier work"}, "Te_PtxB Y208A": {"biological_target": "Te_PtxB Y208A (Trichodesmium erythraeum, UniProt Q119I9, Y234A)", "sequence (Q119I9 28-298 Y234A limits assumed)": "as the sequence (Q119I9 28-298 limits assumed) above, with Y207A counted along it", "assay": "biochemical"}, "Te_PtxB Y208F [5]": {"biological_target": "T3, Te_PtxB Y208F (Trichodesmium erythraeum, UniProt Q119I9, Y234F)", "T3 sequence (Q119I9 28-298 Y234F limits assumed)": "as the sequence (Q119I9 28-298 limits assumed) above, with Y207F counted along it"}, "Te_PtxB Y208F [6]": {"biological_target": "T3, Te_PtxB Y208F", "assay": "biochemical"}, "[7]": {"system": "E. coli strain devoid of its native phosphate acquisition systems", "settings": "cited from earlier work", "remark": "listed apart in the source"}, "Te_PtxB [8]": {"biological_target": "T1, Te_PtxB", "assay": "biochemical"}, "HtxB [9]": {"biological_target": "T2, HtxB", "assay": "biochemical"}, "Pm_PtxB": {"biological_target": "Pm_PtxB", "settings": "cited from earlier work"}},
  "note": "Read-outs that look alike come from different tables or passages of the source.",
  "data": [
    {"smiles": "NCCP(=O)(O)O", "note": "[2-Aminoethylphosphonate, 2-aminoethylphosphonate]", "values": [
      {"measurement": "binding affinity for Ec_PhnD, in words", "setting": "Ec_PhnD", "result": "low nanomolar"},
      {"measurement": "K d, Pm_PhnD", "setting": "Pm_PhnD; pH 7.4", "result": "NBD"},
      {"measurement": "K d, Ps_PtxB", "setting": "Ps_PtxB; pH 7.4", "result": "NBD"},
      {"measurement": "binding, result in words", "setting": "[1]", "result": "None of the proteins showed any evidence of binding"},
      {"measurement": "K d, Te_PtxB", "setting": "Te_PtxB [2]; pH 7.4", "result": "NBD"}
    ]},
    {"smiles": "O=P(O)(O)O", "note": "[Phosphate]", "values": [
      {"measurement": "K d, HtxB", "setting": "HtxB [3]", "result": "NBD"},
      {"measurement": "growth of E. coli strain with PtxD and Ralstonia sp. 4506 PtxABC", "setting": "[4]", "result": "grew"},
      {"measurement": "Kd", "setting": "Ps_PtxB", "result": "159 ± 36", "unit": "µM"},
      {"measurement": "Kd", "setting": "Te_PtxB Y208A", "result": "51.3 ± 1.76", "unit": "µM"},
      {"measurement": "binding to Te_PtxB Y208F, result in words", "setting": "Te_PtxB Y208F [5]", "result": "essentially abolished"},
      {"measurement": "Kd", "setting": "Te_PtxB Y208F [6]", "result": "> 60000", "unit": "µM"},
      {"measurement": "growth of E. coli strain with HtxBCDE", "setting": "[7]", "result": "did not allow growth"}
    ]},
    {"smiles": "O=[PH](O)O", "note": "[Phosphite, phosphite]", "values": [
      {"measurement": "Kd", "setting": "Pm_PhnD", "result": "0.051 ± 0.004", "unit": "µM"},
      {"measurement": "higher binding affinity for phosphite than phosphate and phosphonates, Pm_PhnD", "setting": "Pm_PhnD", "result": "2–4 orders of magnitude"},
      {"measurement": "growth of E. coli strain with PtxD and Ralstonia sp. 4506 PtxABC", "setting": "[4]", "result": "grew"},
      {"measurement": "Kd", "setting": "Ps_PtxB", "result": "0.24 ± 0.03", "unit": "µM"},
      {"measurement": "Kd", "setting": "Te_PtxB Y208A; K d, Te_PtxB Y208A", "result": "134 ± 6.4", "unit": "µM"},
      {"measurement": "Kd", "setting": "Te_PtxB Y208A; Kd, Te_PtxB Y208A (as quoted in peer review file)", "result": 135, "unit": "µM"},
      {"measurement": "Kd", "setting": "Te_PtxB [8]", "result": "0.289 ± 0.064", "unit": "µM"},
      {"measurement": "Kd", "setting": "Te_PtxB Y208F [6]; K d, Te_PtxB Y208F", "result": "295 ± 4.64", "unit": "µM"},
      {"measurement": "Kd", "setting": "Te_PtxB Y208F [6]; Kd, Te_PtxB Y208F (as quoted in peer review file)", "result": 295, "unit": "µM"},
      {"measurement": "Kd", "setting": "HtxB [9]", "result": "> 10000", "unit": "µM"},
      {"measurement": "Kd", "setting": "[1]; read-out: K d range over Te_PtxB, Pm_PhnD and Ps_PtxB", "result": "0.05 to 0.24", "unit": "µM"},
      {"measurement": "binding affinity for Pm_PtxB, in words", "setting": "Pm_PtxB", "result": "low micromolar"},
      {"measurement": "growth of E. coli strain with HtxBCDE", "setting": "[7]", "result": "did allow growth"},
      {"measurement": "higher binding affinity for phosphite than phosphate and phosphonates, Te_PtxB", "setting": "Te_PtxB [2]", "result": "2–4 orders of magnitude"},
      {"measurement": "Kd", "setting": "Te_PtxB [2]; K d, Te_PtxB", "result": "0.17 ± 0.07", "unit": "µM"},
      {"measurement": "Kd", "setting": "Te_PtxB [2]; Kd, PtxB (approximate, authors' response)", "result": "~0.17", "unit": "µM"},
      {"measurement": "Kd", "setting": "Te_PtxB [2]; Kd, Te_PtxB WT (as quoted in peer review file)", "result": 0.17, "unit": "µM"}
    ]}
  ]
}
